Experimental data from patent US9512125B2, “Substituted pyrazolo[3.4-D] pyrimidines as anti-inflammatory agents” (THE REGENTS OF THE UNIVERSITY OF CALIFORNIA, priority 2004, dated 2016).

The compounds below were run on HUVEC with or without PBMC (3C, 4H, SAG and LPS systems) (assay: BioMAP inflammation model systems (3C, 4H, SAG, LPS), cell-based ELISA profiling). Details: 4 systems (3C, 4H, SAG, LPS); concentration of 5 micromolar; 24 h stimulation.
Set-up: species or system human

SMILES	Activity
CC(C)(C)n1nc(Cc2cc(F)ccc2F)c2c(N)ncnc21 [Compound 79]	active
CN(C)c1ncnc2c1c(Cc1ccccc1Cl)nn2C(C)(C)C [Compound 80]	active
CC(C)(C)n1nc(Cc2cccc(O)c2)c2c(N)ncnc21 [Compound 24]	+
COc1ccc(Cc2nn(C(C)(C)C)c3ncnc(N)c23)cc1 [Compound 27]	+
Cc1ccc(C)c(Cc2nn(C(C)(C)C)c3ncnc(N)c23)c1 [Compound 1]	+
Cc1sccc1Cc1nn(C(C)(C)C)c2ncnc(N)c12 [Compound 67]	active
CC(C)(C)n1nc(-c2ccccc2OCc2ccccc2)c2c(N)ncnc21 [Compound 40]	+
CC(C)(C)n1nc(-c2ccc(-c3ccccc3)cc2)c2c(N)ncnc21 [Compound 88]	active
Nc1ncnc2c1c(Cc1ccccc1Cl)nn2C1CCC(O)CC1 (stereo not shown) [Compound 75]	+
Cn1nc(Cc2ccccc2Cl)c2c(N)ncnc21 [Compound 61]	+
CC(C)(C)n1nc(-c2cccc(Oc3ccccc3)c2)c2c(N)ncnc21 [Compound 22]	active
Nc1ncnc2c1c(Cc1ccccc1Cl)nn2CCCCO [Compound 74]	+
CC(C)(C)n1nc(CC2CCCC2)c2c(N)ncnc21 [Compound 35]	+
Cc1cccc(Cc2nn(C(C)(C)C)c3ncnc(N)c23)c1C [Compound 6]	active
CC(C)(C)n1nc(-c2cccc(OCc3c(Cl)cccc3Cl)c2)c2c(N)ncnc21 [Compound 20]	+
CC(C)(C)n1nc(-c2ccc([N+](=O)[O-])cc2)c2c(N)ncnc21 [Compound 18]	+
CC(C)n1cc(-c2cccc(O)c2)c2c(N)ncnc21 [Compound 50]	active
Clc1ncnc2c1c(-c1ccccc1)nn2Cc1ccccc1 [Compound 57]	+
CC(C)(C)n1nc(-c2cc3ccccc3s2)c2c(N)ncnc21 [Compound 86]	active
CCCCCn1nc(Cc2ccccc2Cl)c2c(N)ncnc21 [Compound 84]	active
CC(C)(C)n1nc(Cc2cccc(F)c2F)c2c(N)ncnc21 [Compound 82]	active
Cc1cccc(Cc2nn(C(C)(C)C)c3ncnc(N)c23)c1 [Compound 32]	+

SMILES	Activity
COCCn1nc(-c2cccc(O)c2)c2c(N)ncnc21 [Compound 52]	active
CC(C)(C)n1nc(CCc2ccccc2)c2c(N)ncnc21 [Compound 29]	+
COCCn1nc(-c2ccccc2)c2c(N)ncnc21 [Compound 51]	+
CC(C)(C)n1nc(Cc2cccc(Br)c2)c2c(N)ncnc21 [Compound 2]	+
CCCn1nc(Cc2ccccc2Cl)c2c(N)ncnc21 [Compound 83]	active
CC(C)Cc1n[nH]c2ncnc(N)c12 [Compound 44]	+
CCCCn1nc(Cc2ccccc2Cl)c2c(N)ncnc21 [Compound 89]	active
Cc1cc(C)cc(Cc2nn(C(C)(C)C)c3ncnc(N)c23)c1 [Compound 3]	+
CNc1ncnc2c1c(-c1cccc(O)c1)cn2C(C)C [Compound 55]	+
CCOCCn1nc(Cc2ccccc2Cl)c2c(N)ncnc21 [Compound 70]	+
COc1ccccc1Cc1nn(C(C)(C)C)c2ncnc(N)c12 [Compound 28]	+
CC(C)(C)n1nc(Cc2ccc(Cl)c(Cl)c2)c2c(N)ncnc21 [Compound 4]	+
CC(C)(C)n1nc(-c2ccccc2Cl)c2c(N)ncnc21 [Compound 37]	+
Nc1ncnc2c1c(-c1ccccc1)nn2-c1ccccc1 [Compound 49]	+
Nc1ncnc2[nH]nc(Cc3ccccc3)c12 [Compound 45]	+
CC(C)(C)n1nc(Cc2ccccc2O)c2c(N)ncnc21 [Compound 26]	+
Cc1sccc1Cc1n[nH]c2ncnc(N)c12 [Compound 66]	active
CC(c1ccccc1)c1nn(C(C)(C)C)c2ncnc(N)c12 (stereo not shown) [Compound 34]	+
CC(C)(C)n1nc(-c2cccc(OCc3ccccc3)c2)c2c(N)ncnc21 [Compound 21]	+
CC(C)(C)n1nc(Cc2ccc(O)cc2)c2c(N)ncnc21 [Compound 25]	+
COC(=O)Cn1nc(Cc2cccc3ccccc23)c2c(N)ncnc21 [Compound 42]	+
CC(C)(C)n1nc(Cc2c(Cl)cccc2Cl)c2c(N)ncnc21 [Compound 60]	active

SMILES	Activity
CNc1ncnc2c1c(-c1cccc(N)c1)nn2C(C)C [Compound 56]	+
COC(=O)CCCn1nc(Cc2ccccc2Cl)c2c(N)ncnc21 [Compound 73]	+
CC(C)(C)n1nc(Cc2c(F)cccc2F)c2c(N)ncnc21 [Compound 81]	active
Cc1ccc(Cc2nn(C(C)(C)C)c3ncnc(N)c23)cc1C [Compound 5]	+
CC(C)(C)n1nc(Cc2ccc(Cl)cc2Cl)c2c(N)ncnc21 [Compound 68]	+
Cc1ccc(Cc2nn(C(C)(C)C)c3ncnc(N)c23)cc1 [Compound 33]	+
CC(C)(C)n1nc(-c2cccc([N+](=O)[O-])c2)c2c(N)ncnc21 [Compound 16]	+
Cc1cccc(-c2nn(C(C)(C)C)c3ncnc(N)c23)c1 [Compound 39]	active
Cn1nc(Cc2ccccc2Br)c2c(N)ncnc21 [Compound 58]	+
CC(C)(C)n1nc(Cc2ccc(Cl)cc2)c2c(N)ncnc21 [Compound 23]	+
CC(C)(C)n1nc(C2(c3ccccc3Cl)CC2)c2c(N)ncnc21 [Compound 77]	active
CC(C)(C)n1nc(C2CCCC2)c2c(N)ncnc21 [Compound 38]	+
CCCCCCn1nc(Cc2ccccc2Cl)c2c(N)ncnc21 [Compound 87]	active
CCC(C)CCn1nc(Cc2ccccc2Cl)c2c(N)ncnc21 (stereo not shown) [Compound 85]	active
CC(C)n1cc(-c2cccc(O)c2)c2c(NCc3ccccc3)ncnc21 [Compound 53]	active
CC(C)(C)c1ccc(-c2nn(C(C)(C)C)c3ncnc(N)c23)cc1 [Compound 14]	+
Cc1n[nH]c2ncnc(N)c12 [Compound 46]	+
CC(C)(C)n1nc(Cc2ccc(F)cc2F)c2c(N)ncnc21 [Compound 78]	active
CC(C)(C)n1nc(Cc2ccc(F)cc2Cl)c2c(N)ncnc21 [Compound 69]	+
Nc1ncnc2[nH]nc(-c3ccc4ccccc4c3)c12 [Compound 47]	active
